What all share (assay type): in vivo
Assay [1] concerns Aphis gossypii. The assay is described as follows: Test Example 1: pesticidal effect against Aphis gossypii (Part 1), cucumber leaf disk, death rate of first-instar larvae and Colby theoretical value. The following applies: other insecticide 0.078 ppm alone (compound 261 0 ppm); for Theoretical value calculated by Colby's formula: Table 19; for Death rate of Aphis gossypii by single active ingredient or admixture: cucumber leaf disk, first-instar larvae, 3 days. The text has this:
(§1) A leaf disk having a diameter of 2.0 cmφ was cut out from a cucumber grown in a pot and was placed in a 5.0 cm-Schale. Test admixture solutions, prepared by diluting the composition of the present invention with a 50% aqueous acetone solution (0.05% Tween 20 added) to predetermined concentrations specified in Table 18, test single active ingredient solutions in which only compound 261 had been dissolved without mixing other insecticides, or test single active ingredient solutions in which only other insecticides had been dissolved without mixing any pyripyropene derivative were spread over the cucumber leaf disk. The leaf disk was then air dried. Ten larvae at the first instar born of Aphis gossypii were released in the Schale. Thereafter, the Schale was lidded and was allowed to stand in a humidistat chamber (light period 16 hr-dark period 8 hr) (25° C.). […] Death rate (%)={number of dead larvae/(number of survived larvae+number of dead larvae)}×100
(§2) Colby's formula: Theoretical value (%)=100−(A×B)/100
wherein A: 100—(death rate when treatment was performed only with compound 261); and • B: 100—(death rate when treatment was performed only with each of flonicamid, acetamiprid, fipronil, imidacloprid)
(§3) When the pesticidal effect (Table 18) of the composition of the present invention in, an admixture form against Aphis gossypii exceeded the theoretical value calculated by the Colby's formula shown in Table 19, the admixture was determined to have a synergistic effect.

In assay [2] the test system is Aphis gossypii. As to the kind of experiment: Test Example 2: pesticidal effect against Aphis gossypii (Part 2), same test as Test Example 1 with other insecticides, death rate and Colby theoretical value. As to conditions: other insecticide 0.078 ppm alone (compound 261 0 ppm); for Theoretical value calculated by Colby's formula: Table 21; for Pesticidal effect against Aphis gossypii, death rate: cucumber leaf disk, 3 days.
Description: as §1, §2, §3
The same test as in Test Example 1 was performed, except that the other insecticides were changed to those specified in Table 20.

In assay [3] the test system is Plutella xylostella. As to the kind of experiment: Test Example 3: pesticidal effect against Plutella xylostella, cabbage leaf disk, death rate of second-instar larvae and Colby theoretical value. As to conditions: other insecticide 0.156 ppm alone (compound 261 0 ppm). The text has this: A leaf disk having a diameter of 5.0 cmφ was cut out from a cabbage grown in a pot and was placed in a plastic cup. Test admixture solutions, prepared by diluting the composition of the present invention with a 50% aqueous acetone solution (0.05% Tween 20 added) to predetermined concentrations specified in Table 22, test single active ingredient solutions in which only compound 261 had been dissolved without mixing other insecticides, or test single active ingredient solutions in which only other insecticides had been dissolved without mixing any pyripyropene derivative were spread over the cabbage leaf disk. The leaf disk was then air dried. Five larvae at the second instar born of Plutella xylostella were released in the cup. Thereafter, the cup was lidded and was allowed to stand in a humidistat chamber (light period 16 hr-dark period 8 hr) (25° C.). […] Death rate (%)={number of dead larvae/(number of survived larvae+number of dead larvae)}×100
Colby's formula: Theoretical value (%)=100−(A×B)/100 […]
When the pesticidal effect (Table 22) of the composition of the present invention in an admixture form against Plutella xylostella exceeded the theoretical value calculated by the Colby's formula shown in Table 23, the admixture was determined to have a synergistic effect.

Turning to `O=[N+]([O-])NC1=NCCN1Cc1ccc(Cl)nc1` [imidacloprid], in assay [1], the “Theoretical value calculated by Colby's formula” value (shortened to “Theoretical value calculated”) is 20% and the “Death rate of Aphis gossypii by single active ingredient or admixture” value (“Death rate of Aphis gossypii” below) is recorded as 20%.

For `CN1COCN(Cc2cnc(Cl)s2)/C1=N\[N+](=O)[O-]` [thiamethoxam], in assay [2], the “Theoretical value calculated” value is reported as 65% and the “Pesticidal effect against Aphis gossypii, death rate” value (“Pesticidal effect … death rate” below) is recorded as 65%.

In the case of `CN/C(=N/CC1CCOC1)N[N+](=O)[O-]` (stereo not shown) [dinotefuran], in assay [2], the “Theoretical value calculated” value is listed as 40% and the “Pesticidal effect … death rate” value amounted to 40%.

Take `CN/C(=N\[N+](=O)[O-])NCc1cnc(Cl)s1` [clothianidin]: in assay [2], the “Theoretical value calculated” value was 79% and the “Pesticidal effect … death rate” value is listed as 79%.

As to `CCOCn1c(-c2ccc(Cl)cc2)c(C#N)c(Br)c1C(F)(F)F` [chlorfenapyr], in assay [3] (Table 23), the “Theoretical value calculated” value is reported as 0%. The “Pesticidal effect against Plutella xylostella, deathrate” value in assay [3] (cabbage leaf disk, second-instar larvae, 3 days) turned out to be 0%.

For the compound `N#CCNC(=O)c1cnccc1C(F)(F)F` [flonicamid], in assay [1], the “Theoretical value calculated” value was 10% and the “Death rate of Aphis gossypii” value was found to be 10%.

Consider `N#Cc1nn(-c2c(Cl)cc(C(F)(F)F)cc2Cl)c(N)c1[S+]([O-])C(F)(F)F` (stereo not shown) [fipronil], for which, in assay [1], the “Theoretical value calculated” value is listed as 0% and the “Death rate of Aphis gossypii” value is 0%.

With `C/C(=N\C#N)N(C)Cc1ccc(Cl)nc1` [acetamiprid], in assay [1], the “Theoretical value calculated” value was 58% and the “Death rate of Aphis gossypii” value stood at 58%.
